# Measurements published in patent US7087620B2, “Liquid pharmaceutical formulations containing 3,7-diazabicyclo[3,3,1]nonane compounds and methods of treatment relating to anti-arrhythmic events” (Solvay Pharmaceuticals GmbH, priority 2002, dated 2006).
# Where a name gives a salt, the structure may show the parent alone.
# Test system: healthy male subjects
# Assay: Two step infusion study in healthy male subjects: safety and tolerability
# Assay type: in vivo, human
# Procedure: A double-blind, placebo-controlled, randomized, single iv dose, two periods cross-over study to assess the safety, tolerability, pharmacodynamics and pharmacokinetics during and following a two step infusion of Tedisamil in healthy male subjects was performed with the following drug and dosages: Tedisamil dihydrochloride/0.4 mg/kg body weight infused over 30 minutes.
# Screening assessments included physical examination, ECG, HIV/Hepatitis screening, blood pressure and heart rate measurements, clinical laboratory determinations, urine drug screen, alcohol breath test, and medical history. Follow-up assessments included physical examination, ECG, blood pressure and heart rate measurements, clinical laboratory determinations, and questions for adverse events and concomitant medication. During concomitant administration of Tedisamil, blood pressure, heart rate, and ECGs were recorded. Adverse events and concomitant medication were monitored throughout the study.
# Subjects who received study medication, were considered valid for safety evaluation.
# Treatment emergent adverse events, defined as any adverse event present at baseline that worsened or any event that began after treatment with study medication, were summarized by COSTART term for each treatment group. Each adverse event was evaluated for frequency of occurrence, duration, intensity, action taken, outcome, and relationship to administration of the study medication. Adverse events were listed for each subject.
# Listings of abnormal or out of range values for each subject were presented for vital signs, laboratory assays, and physical examinations. Adverse events, blood pressure, heart rate and clinical laboratory data were analyzed descriptively and reviewed to evaluate the safety of all randomized subjects. Any clinical abnormalities were described.
smiles,measurement,setting,value
"C1CCC2(C1)C1CN(CC3CC3)CC2CN(CC2CC2)C1 [tedisamil dihydrochloride, N,N′-dicyclopropylmethyl-9,9-tetramethylen-3,7-diazabicyclo[3,3,1]nonane dihydrochloride]","Findings in hematology, clinical chemistry, urinalysis and vital signs",0.4 mg/kg iv two step infusion,No clinically relevant findings
same,Safety and tolerability,"two step infusion of 0.4 mg tedisamil dihydrochloride per kg (0.32 mg/kg base), dihydrochloride",well tolerated
